According to patent US9682991B2, “Tricyclic compounds for use as kinase inhibitors” (FUNDACIÓN CENTRO NACIONAL DE INVESTIGACIONES ONCOLOGICAS …, priority 2009, dated 2017):
Where two headings read alike, the source gives them in different places.

What was measured:
[1] = molecular target: PIM-2 (Homo sapiens (Human), UniProt Q9P1W9); test: PIM-2 biochemical assay (ADP Hunter); conditions: semi-quantitative; read-out: PIM2 IC50
Source text: The biochemical assay to measure PIM-2 activity relies on the ADP Hunter assay kit (DiscoveRx Corp., Cat. #90-0077), that determines the amount of ADP as direct product of the kinase enzyme activity.

[2] = molecular target: PIM-3 (Homo sapiens (Human), UniProt Q86V86); test: PIM-3 biochemical assay (ADP Hunter); conditions: semi-quantitative; read-out: PIM3 IC50
[3] = molecular target: PIM-1 (Homo sapiens (Human), UniProt P11309); test: PIM-1 biochemical assay (ADP Hunter)
[4] = read-out: PIM1 IC50, semi-quantitative

Chain of PIM-1 (P11309 whole entry): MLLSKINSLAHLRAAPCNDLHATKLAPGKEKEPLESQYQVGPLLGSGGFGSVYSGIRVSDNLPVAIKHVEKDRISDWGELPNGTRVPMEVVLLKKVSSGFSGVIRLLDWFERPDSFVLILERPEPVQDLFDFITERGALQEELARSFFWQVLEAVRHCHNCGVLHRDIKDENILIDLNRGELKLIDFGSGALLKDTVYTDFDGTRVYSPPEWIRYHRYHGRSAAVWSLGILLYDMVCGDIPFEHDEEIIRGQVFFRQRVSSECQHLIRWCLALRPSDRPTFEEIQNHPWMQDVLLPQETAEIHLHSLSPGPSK
Chain of PIM-2 (Q9P1W9 whole entry): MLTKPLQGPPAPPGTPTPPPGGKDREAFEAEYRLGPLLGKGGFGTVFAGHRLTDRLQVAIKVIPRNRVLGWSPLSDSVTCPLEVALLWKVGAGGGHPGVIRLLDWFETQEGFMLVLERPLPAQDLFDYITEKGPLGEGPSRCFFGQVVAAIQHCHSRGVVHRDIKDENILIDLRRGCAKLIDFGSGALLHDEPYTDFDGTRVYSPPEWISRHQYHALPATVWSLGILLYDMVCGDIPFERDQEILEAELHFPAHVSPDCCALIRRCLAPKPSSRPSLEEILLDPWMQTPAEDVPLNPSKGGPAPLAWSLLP

SMILES	IC50 [1] [nM]	IC50 [2] [nM]	IC50 [3, 4] [nM]	IC50 [3] [nM]	IC50 ([3]; read-out: PIM1 IC50) [nM]
CN1CCOc2c1c(NCCc1cccnc1)nn1c(-c3cccc(OC(F)(F)F)c3)nnc21 [Example 26, [6-Methyl-3-(3-trifluoromethoxy-phenyl)-7,8-dihydro-6H-9-oxa-1,2,3a,4,6-pentaaza-cyclopenta[a]naphthalen-5-yl]-(2-pyridin-3-yl-ethyl)-amine]	100 to 1000	100 to 1000	–	–	–
CN1CCOc2c1c(NCCCO)nn1c(-c3cccc(OC(F)(F)F)c3)nnc21 [Example 21, 3-[6-Methyl-3-(3-trifluoromethoxy-phenyl)-7,8-dihydro-6H-9-oxa-1,2,3a,4,6-pentaaza-cyclopenta[a]naphthalen-5-ylamino]-propan-1-ol]	100 to 1000	100 to 1000	< 100	–	–
CC(C)NCC1CCN(c2nn3c(-c4cccc(OC(F)(F)F)c4)nnc3c3c2N(C)CCO3)CC1 [Example 85, Isopropyl-{1-[6-methyl-3-(3-trifluoromethoxy-phenyl)-7,8-dihydro-6H-9-oxa-1,2,3a,4,6-pentaaza-cyclopenta[a]naphthalen-5-yl]-piperidin-4-ylmethyl}-amine]	100 to 1000	100 to 1000	< 100	–	–
CN1CCOc2c1c(N1CCC(CN)CC1)nn1c(-c3cccc(OC(F)(F)F)c3)nnc21 [Example 55, C-{1-[6-Methyl-3-(3-trifluoromethoxy-phenyl)-7,8-dihydro-6H-9-oxa-1,2,3a,4,6-pentaaza-cyclopenta[a]naphthalen-5-yl]-piperidin-4-yl}-methylamine]	–	< 100	< 100	–	–
CN1CCC(CNc2nn3c(-c4cccc(OC(F)(F)F)c4)nnc3c3c2OCC(C)(C)N3C)CC1 [Example 72, (1-Methyl-piperidin-4-ylmethyl)-[8,8,9-trimethyl-3-(3-trifluoromethoxy-phenyl)-8,9-dihydro-7H-6-oxa-1,2,3a,4,9-pentaaza-cyclopenta[a]naphthalen-5-yl]-amine]	> 1000	100 to 1000	–	100 to 1000	–
CN1CCOc2c1c(NCC1CCC(O)CC1)nn1c(-c3cccc(OC(F)(F)F)c3)nnc21 (stereo not drawn) [Example 43, 4-{[6-Methyl-3-(3-trifluoromethoxy-phenyl)-7,8-dihydro-6H-9-oxa-1,2,3a,4,6-pentaaza-cyclopenta[a]naphthalen-5-ylamino]-methyl}-cyclohexanol]	–	< 100	< 100	–	–
CN1CCC(CNc2nn3c(-c4cccc(C(F)(F)F)c4)nnc3c3c2N(C)CCO3)CC1 [Example 32, (1-Methyl-piperidin-4-ylmethyl)-[6-methyl-3-(3-trifluoromethyl-phenyl)-7,8-dihydro-6H-9-oxa-1,2,3a,4,6-pentaaza-cyclopenta[a]naphthalen-5-yl]-amine]	100 to 1000	< 100	< 100	–	–
CN1CCOc2c1c(NC1CCOCC1)nn1c(-c3cccc(OC(F)(F)F)c3)nnc21 [Example 23, [6-Methyl-3-(3-trifluoromethoxy-phenyl)-7,8-dihydro-6H-9-oxa-1,2,3a,4,6-pentaaza-cyclopenta[a]naphthalen-5-yl]-(tetrahydro-pyran-4-yl)-amine]	< 100	100 to 1000	< 100	–	–
COc1ccc(CNc2nn3c(-c4cccc(OC(F)(F)F)c4)nnc3c3c2N(C)CCO3)cc1OC [Example 24, (3,4-Dimethoxy-benzyl)-[6-methyl-3-(3-trifluoromethoxy-phenyl)-7,8-dihydro-6H-9-oxa-1,2,3a,4,6-pentaaza-cyclopenta[a]naphthalen-5-yl]-amine]	> 1000	–	–	100 to 1000	–
CC1COc2c(c(NCC3CCN(C)CC3)nn3c(-c4cccc(OC(F)(F)F)c4)nnc23)N1C (stereo not drawn) [Example 39, [6,7-Dimethyl-3-(3-trifluoromethoxy-phenyl)-7,8-dihydro-6H-9-oxa-1,2,3a,4,6-pentaaza-cyclopenta[a]naphthalen-5-yl]-(1-methyl-piperidin-4-ylmethyl)-amine]	100 to 1000	–	< 100	–	–
CN1CCOc2c(NCc3ccc(F)cc3)nn3c(-c4cccc(OC(F)(F)F)c4)nnc3c21 [Example 10, (4-Fluoro-benzyl)-[9-methyl-3-(3-trifluoromethoxy-phenyl)-8,9-dihydro-7H-6-oxa-1,2,3a,4,9-pentaaza-cyclopenta[a]naphthalen-5-yl]-amine]	> 1000	–	> 1000	–	–
CN1CCOc2c1c(N1CCCC3(CCCN3C)CC1)nn1c(-c3cccc(OC(F)(F)F)c3)nnc21 (stereo not drawn) [Example 61, 6-Methyl-5-(1-methyl-1,8-diaza-spiro[4.6]undec-8-yl)-3-(3-trifluoromethoxy-phenyl)-7,8-dihydro-6H-9-oxa-1,2,3a,4,6-pentaaza-cyclopenta[a]naphthalene]	100 to 1000	–	< 100	–	–
COc1ccc(-c2nnc3c4c(c(NCc5ccc(F)cc5)nn23)N(C)CCN4C)cc1 [Example 15, (4-Fluoro-benzyl)-[3-(4-methoxy-phenyl)-6,9-dimethyl-6,7,8,9-tetrahydro-1,2,3a,4,6,9-hexaaza-cyclopenta[a]naphthalen-5-yl]-amine]	> 1000	–	–	> 1000	4350
COc1ccc(-c2nnc3c4c(c(NCc5ccc(F)cc5)nn23)OCCN4C)cc1 [Example 80, (4-Fluoro-benzyl)-[3-(4-methoxy-phenyl)-9-methyl-8,9-dihydro-7H-6-oxa-1,2,3a,4,9-pentaaza-cyclopenta[a]naphthalen-5-yl]-amine]	> 1000	–	> 1000	–	–
CN1CCOc2c1c(N1CCCC3(CCNCC3)C1)nn1c(-c3cccc(OC(F)(F)F)c3)nnc21 [Example 68, 5-(2,9-Diaza-spiro[S5.5]undec-2-yl)-6-methyl-3-(3-trifluoromethoxy-phenyl)-7,8-dihydro-6H-9-oxa-1,2,3a,4,6-pentaaza-cyclopenta[a]naphthalene]	< 100	–	< 100	–	–
CN1CCOc2c1c(N(C)C1CCOCC1)nn1c(-c3cccc(OC(F)(F)F)c3)nnc21 [Example 97, Methyl-[6-methyl-3-(3-trifluoromethoxy-phenyl)-7,8-dihydro-6H-9-oxa-1,2,3a,4,6-pentaaza-cyclopenta[a]naphthalen-5-yl]-(tetrahydro-pyran-4-yl)-amine]	100 to 1000	< 100	< 100	–	–
CN1CCOc2c(NCCN3CCN(S(C)(=O)=O)CC3)nn3c(-c4cccc(OC(F)(F)F)c4)nnc3c21 [Example 96, [2-(4-Methanesulfonyl-piperazin-1-yl)-ethyl]-[9-methyl-3-(3-trifluoromethoxy-phenyl)-8,9-dihydro-7H-6-oxa-1,2,3a,4,9-pentaaza-cyclopenta[a]naphthalen-5-yl]-amine]	> 1000	–	–	100 to 1000	–
CN1CCOc2c(N3CCC(N)CC3)nn3c(-c4cccc(OC(F)(F)F)c4)nnc3c21 [Example 46, 1-[9-Methyl-3-(3-trifluoromethoxy-phenyl)-8,9-dihydro-7H-6-oxa-1,2,3a,4,9-pentaaza-cyclopenta[a]naphthalen-5-yl]-piperidin-4-ylamine]	> 1000	–	–	100 to 1000	–
CN1CCOc2c(NC3CCNCC3)nn3c(-c4cccc(OC(F)(F)F)c4)nnc3c21 [Example 47, [9-Methyl-3-(3-trifluoromethoxy-phenyl)-8,9-dihydro-7H-6-oxa-1,2,3a,4,9-pentaaza-cyclopenta[a]naphthalen-5-yl]-piperidin-4-yl-amine]	> 1000	–	–	100 to 1000	–
COc1ccc(-c2nnc3c4c(c(NCC5CCN(C)CC5)nn23)N(C)CCO4)cc1 [Example 1, [3-(4-Methoxy-phenyl)-6-methyl-7,8-dihydro-6H-9-oxa-1,2,3a,4,6-pentaaza-cyclopenta[a]naphthalen-5-yl]-(1-methyl-piperidin-4-ylmethyl)-amine]	> 1000	–	–	100 to 1000	–
CN1CCOc2c(NCC3CC3)nn3c(-c4cccc(OC(F)(F)F)c4)nnc3c21 [Example 8, Cyclopropylmethyl-[9-methyl-3-(3-trifluoromethoxy-phenyl)-8,9-dihydro-7H-6-oxa-1,2,3a,4,9-pentaaza-cyclopenta[a]naphthalen-5-yl]-amine]	> 1000	–	–	100 to 1000	–
COc1ccc(-c2nnc3c4c(c(N5CCC(CNC(C)=O)CC5)nn23)N(C)CCO4)cc1 [Example 92, N-{1-[3-(4-Methoxy-phenyl)-6-methyl-7,8-dihydro-6H-9-oxa-1,2,3a,4,6-pentaaza-cyclopenta[a]naphthalen-5-yl]-piperidin-4-ylmeth I}-acetamide]	> 1000	–	> 1000	–	–
CC(=O)N1CCN(CCNc2nn3c(-c4cccc(OC(F)(F)F)c4)nnc3c3c2OCCN3C)CC1 [Example 95, 1-(4-{2-[9-Methyl-3-(3-trifluoromethoxy-phenyl)-8,9-dihydro-7H-6-oxa-1,2,3a,4,9-pentaaza-cyclopenta[a]naphthalen-5-ylamino]-ethyl}-piperazin-1-yl)-ethanone]	> 1000	–	> 1000	–	–
CCN1CCOc2c(NC3CCOCC3)nn3c(-c4cccc(OC(F)(F)F)c4)nnc3c21 [Example 14, [9-Ethyl-3-(3-trifluoromethoxy-phenyl)-8,9-dihydro-7H-6-oxa-1,2,3a,4,9-pentaaza-cyclopenta[a]naphthalen-5-yl]-(tetrahydro-pyran-4-yl)-amine]	> 1000	–	–	100 to 1000	583
CN1CCOc2c(N3CC4(CCNCC4)C3)nn3c(-c4cccc(OC(F)(F)F)c4)nnc3c21 [Example 83, 5-(2,7-Diaza-spiro[3.5]non-2-yl)-9-methyl-3-(3-trifluoromethoxy-phenyl)-8,9-dihydro-7H-6-oxa-1,2,3a,4,9-pentaaza-cyclopenta[a]naphthalene]	> 1000	–	–	100 to 1000	–
FC(F)(F)Oc1cccc(-c2nnc3c4c(c(NCC5CC5)nn23)OCCO4)c1 [Example 102, Cyclopropylmethyl-[3-(3-trifluoromethoxy-phenyl)-7,8-dihydro-6,9-dioxa-1,2,3a,4-tetraaza-cyclopenta[a]naphthalen-5-yl]-amine]	< 100	–	< 100	–	–
